Laboratory results from patent US10709690B2, “Combination therapy with nitrated lipids and inhibitors of the renin-angiotensin-aldosterone system” (THE UNIVERSITY OF UTAH RESEARCH FOUNDATION, priority 2011, dated 2020).

Assays:
Format in all cases: in vivo
db/db mice [1] = test: Renal TBARS in db/db mice, 12-day treatment; settings: 12 days, OA-NO2 10 mg/kg/d via osmotic mini-pump, losartan via diet
Source text: Lean mice (non-diabetic) with vehicle treatment were used as controls. […] Lean: n=5; vehicle: n=10; losartan: n=8; OA-NO2: n=9; losartan+OA-NO2: n=10. Data are mean±SE. Male 3-4-month-old db/db mice were from Jackson Laboratories (Bar Harbor, Me.). All animals were housed in an air-conditioned room with a 12-hour light/dark cycle. All procedures and protocols were in accordance with guidelines set by the Laboratory Animal Care Committee at the University of Utah. 9-Nitrooleic acid and 10-nitrooleic acid are two regioisomers of nitrooleic acid (OA-NO2), which are formed by nitration of oleic acid in approximately equal proportions ([…] et al. Chemistry Letters pp. 1109-1112, 1982). The two compounds were purchased from Cayman Chemicals (Ann Arbor, Mich.) (9-nitrooleic acid: Cat #10008042; 10-nitrooleic acid: Cat #10008043) and used as an 1:1 mixture of the isomers. db/db mice were implanted with a 3-week osmotic mini-pump which delivered a vehicle or OA-NO2 at 10 mg/kg/d. Animals were fed with losartan, which is an AT1 blocker. 24-h urine samples were collected before and after the treatment.

renal COX-2 protein = test: Renal COX-2 protein expression in db/db mice by immunoblotting; settings: 12 days; for changes of renal COX-2 protein expression relative to the vehicle group: OA-NO2 10 mg/kg/d via osmotic mini-pump, losartan via diet
Protocol: Lean mice (non-diabetic) with vehicle treatment were used as controls. Renal COX-2 protein was analyzed by using immunoblotting.
Male 3-4-month-old db/db mice were from Jackson Laboratories (Bar Harbor, Me.). All animals were housed in an air-conditioned room with a 12-hour light/dark cycle. All procedures and protocols were in accordance with guidelines set by the Laboratory Animal Care Committee at the University of Utah.
9-Nitrooleic acid and 10-nitrooleic acid are two regioisomers of nitrooleic acid (OA-NO2), which are formed by nitration of oleic acid in approximately equal proportions (Hayama et al. Chemistry Letters pp. 1109-1112, 1982). The two compounds were purchased from Cayman Chemicals (Ann Arbor, Mich.) (9-nitrooleic acid: Cat #10008042; 10-nitrooleic acid: Cat #10008043) and used as an 1:1 mixture of the isomers.
db/db mice were implanted with a 3-week osmotic mini-pump which delivered a vehicle or OA-NO2 at 10 mg/kg/d. Animals were fed with losartan, which is an AT1 blocker. 24-h urine samples were collected before and after the treatment.
Renal COX-2 expression in db/db mice treated as above was examined by immunoblotting.

db/db mice [2] = test: Urinary TBARS in db/db mice, 12-day treatment; settings: OA-NO2 10 mg/kg/d via osmotic mini-pump, losartan via diet; for effect on urinary TBARS (in words): 12 days; for changes of urinary TBARS relative to the vehicle group: after 12 days
Protocol: FIG. 2 is a bar graph comparing the amounts of urinary thiobarbituric acid reactive substances (TBARS) in db/db mice before and after 12-d infusion with vehicle, losartan, nitrooleic acid (OA-NO2), or losartan+OA-NO2. Lean mice (non-diabetic) with vehicle treatment were used as controls. Losartan was administered via diet, while vehicle and OA-NO2 were each infused via osmotic mini-pump. Lean: n=5; vehicle: n=10; losartan: n=8; OA-NO2: n=9; losartan+OA-NO2: n=10. Data are mean±SE. Male 3-4-month-old db/db mice were from Jackson Laboratories (Bar Harbor, Me.). All animals were housed in an air-conditioned room with a 12-hour light/dark cycle. All procedures and protocols were in accordance with guidelines set by the Laboratory Animal Care Committee at the University of Utah. 9-Nitrooleic acid and 10-nitrooleic acid are two regioisomers of nitrooleic acid (OA-NO2), which are formed by nitration of oleic acid in approximately equal proportions ([…] et al. Chemistry Letters pp. 1109-1112, 1982). The two compounds were purchased from Cayman Chemicals (Ann Arbor, Mich.) (9-nitrooleic acid: Cat #10008042; 10-nitrooleic acid: Cat #10008043) and used as an 1:1 mixture of the isomers. db/db mice were implanted with a 3-week osmotic mini-pump which delivered a vehicle or OA-NO2 at 10 mg/kg/d. Animals were fed with losartan, which is an AT1 blocker. 24-h urine samples were collected before and after the treatment.

[3] = test system: renal heme oxygenase-1 (HO-1) protein; test: Renal heme oxygenase-1 protein expression in db/db mice by immunoblotting; settings: 12 days; for changes of renal HO-1 protein expression relative to the vehicle group: OA-NO2 10 mg/kg/d via osmotic mini-pump, losartan via diet
Protocol: Lean mice (non-diabetic) with vehicle treatment were used as controls. Renal HO-1 protein was analyzed by using immunoblotting. […] Male 3-4-month-old db/db mice were from Jackson Laboratories (Bar Harbor, Me.). All animals were housed in an air-conditioned room with a 12-hour light/dark cycle. All procedures and protocols were in accordance with guidelines set by the Laboratory Animal Care Committee at the University of Utah. 9-Nitrooleic acid and 10-nitrooleic acid are two regioisomers of nitrooleic acid (OA-NO2), which are formed by nitration of oleic acid in approximately equal proportions ([…] et al. Chemistry Letters pp. 1109-1112, 1982). The two compounds were purchased from Cayman Chemicals (Ann Arbor, Mich.) (9-nitrooleic acid: Cat #10008042; 10-nitrooleic acid: Cat #10008043) and used as an 1:1 mixture of the isomers. db/db mice were implanted with a 3-week osmotic mini-pump which delivered a vehicle or OA-NO2 at 10 mg/kg/d. Animals were fed with losartan, which is an AT1 blocker. 24-h urine samples were collected before and after the treatment. Renal HO-1 expression was examined using immunoblotting.

db/db mice [4] = test: Urinary albumin in db/db mice, 12-day treatment; settings: 12-day study, OA-NO2 10 mg/kg/d via osmotic mini-pump, losartan via diet; for changes of urinary albumin relative to the vehicle group: + increase, − decrease in albuminuria
Protocol: FIG. 1 is a bar graph comparing the amounts of urinary albumin in db/db mice before and after a 12 day (12-d) administration of vehicle, losartan, nitrooleic acid (OA-NO2), or losartan+OA-NO2. Lean mice (non-diabetic) with vehicle treatment were used as controls. losartan was administered via diet, while OA-NO2 and vehicle were each infused via osmotic mini-pump. Lean: n=5; vehicle: n=10; losartan: n=8; OA-NO2: n=9; losartan+OA-NO2: n=10. Data are mean±SE. Male 3-4-month-old db/db mice were from Jackson Laboratories (Bar Harbor, Me.). All animals were housed in an air-conditioned room with a 12-hour light/dark cycle. All procedures and protocols were in accordance with guidelines set by the Laboratory Animal Care Committee at the University of Utah. 9-Nitrooleic acid and 10-nitrooleic acid are two regioisomers of nitrooleic acid (OA-NO2), which are formed by nitration of oleic acid in approximately equal proportions ([…] et al. Chemistry Letters pp. 1109-1112, 1982). The two compounds were purchased from Cayman Chemicals (Ann Arbor, Mich.) (9-nitrooleic acid: Cat #10008042; 10-nitrooleic acid: Cat #10008043) and used as an 1:1 mixture of the isomers. db/db mice were implanted with a 3-week osmotic mini-pump which delivered a vehicle or OA-NO2 at 10 mg/kg/d. Animals were fed with losartan, which is an AT1 blocker. 24-h urine samples were collected before and after the treatment. […] The plus symbol (+) means an increase and the minus symbol (-) indicates a decrease in albuminuria.

Compound	effect on renal TBARS content (in words) (db/db mice [1])	effect on renal COX-2 expression (in words) (renal COX-2 protein)	changes of renal COX-2 protein expression relative to the vehicle group (renal COX-2 protein) [%]	effect on urinary TBARS (in words) (db/db mice [2])	changes of urinary TBARS relative to the vehicle group (db/db mice [2])	effect on renal HO-1 expression (in words) [3]	changes of renal HO-1 protein expression relative to the vehicle group [3]	effect on urinary albumin excretion (in words) (db/db mice [4])	changes of urinary albumin relative to the vehicle group (db/db mice [4])
CCCCc1nc(Cl)c(CO)n1Cc1ccc(-c2ccccc2-c2nn[nH]n2)cc1 [losartan]	trend of reduction but none of these changes reached statistical significance	modest effect	−5.3	without an effect	+33.4%	elevated	+97.6%	Neither losartan or OA-NO2 alone exhibited a statistically significant effect	+7%
nitrooleic acid [OA-NO2]	trend of reduction but none of these changes reached statistical significance	modest effect	−14.8	without an effect	+16.5%	elevated	+48.8%	Neither losartan or OA-NO2 alone exhibited a statistically significant effect	−13%
